How the values were obtained:
[1] = Tissue distribution in the brain after oral hexanic extract of Tagetes lucida, healthy and LPS-administrated mice; type: in vivo, ICR mice; conditions: after the initial absorption process
Description: After blood sampling, the mice were sacrificed in a chamber with chloroform by an overdose of anesthesia. The brain, kidney, and spleen were quickly removed and rinsed with saline solution, fresh weight was recorded, and immediately placed on ice. Subsequently, the organs were freeze-dried, grounded, and weighted. The lyophilized organs were individually suspended in methanol in a 1:1 volume: dry weight ratio for 24 h, then sonicated for 5 min and centrifuged at 14,000 rpm for 7 min. The supernatants were recovered in clean tubes and stored at −70 °C until their use.
(§1) One hundred microliters of plasma and organs samples, spiked with calibration and QC concentration or samples from the pharmacokinetic study, were mixed with 300 µL of acetonitrile containing the IS at 10 µg/mL for protein precipitation, and vortexed for 3 min. Then, 200 µL of dichloromethane were added, for liquid–liquid extraction of the bioactive compounds, and vortexed for 5 min. The mixture was centrifuged at 14,000 rpm for 10 min, and the extracted organic layers were placed in new tubes, until completely dry at room temperature. For quantitative analysis, samples were resuspended in 100 µL of methanol, transferred to sampling vials, and injected into the chromatographic system, described below.
A pharmacokinetic study was carried out in sixty mice, divided in six subgroups, according to sample collection times. An acute inflammation process by the intraperitoneal (i.p.) administration of LPS at 2 mg/kg was induced in half of the mice per group, while the other half received an i.p. injection of saline solution. Ten min after the damage was induced, the mice were administered with an oral dose of 10 mg/kg of the bioactive fraction dissolved in a 1% Tween-20 aqueous solution. […]
To evaluate the distribution in the tissues, bioactive coumarins were quantified in the lyophilized organs, and concentrations were adjusted to the volumes of liquid obtained by the difference between the dry and fresh weights of each tissue to simulate a distribution approximation of the compounds by tissue system.

[2] = Pharmacokinetic study in plasma after oral hexanic extract of Tagetes lucida, healthy and LPS-damaged mice; type: in vivo, ICR mice; conditions: for Cmax / AUC(0-inf) / MRT / Tmax / half-life / AUC(0-t): ICR, mouse, po, 10 mg/kg; for Cmax / AUC(0-inf) / MRT / Tmax / half-life / AUC(0-t) / Cl/F: plasma, 10 mg/kg oral hexanic extract, mean ± SEM (n = 5); for Cmax: non-compartmental; for AUC(0-t): to 6 h
Description: The optimized HPLC-validated method for the quantification of coumarins present in the hexane extract of T. lucida was used to evaluate the concentration profiles over time in the plasma, brain, kidney, and spleen biological matrices after an oral administration of 10 mg/kg of the extract.
Blood samples were obtained from the retro-orbital sinus of mice and collected in heparinized tubes. Plasma was separated by centrifugation at 3500 rpm for 5 min and stored in new Eppendorf tubes at −70 °C, until further processing.
as §1
A pharmacokinetic study was carried out in sixty mice, divided in six subgroups, according to sample collection times. An acute inflammation process by the intraperitoneal (i.p.) administration of LPS at 2 mg/kg was induced in half of the mice per group, while the other half received an i.p. injection of saline solution. Ten min after the damage was induced, the mice were administered with an oral dose of 10 mg/kg of the bioactive fraction dissolved in a 1% Tween-20 aqueous solution. Blood and tissue samples were obtained and processed at 0, 0.25, 0.75, 1.5, 2, 4, and 6 h post-dosing, as indicated in the “Samples collection” and “Plasma and tissue samples processing” sections.
Pharmacokinetic parameters of PE, SC, DF, HR, and PU in plasma were calculated by PKSolver software.

[3] = Stability of the analytes in spiked plasma, brain, kidney and spleen matrices (autosampler, long-term, freeze-thaw); type: physicochemical, mice; conditions: for Stability Autosampler RE (%): processed samples in autosampler vials 24 h room temperature; for Stability Freeze-Thaw RE (%): three cycles (−4 °C to 25 °C); for Stability Long-Term RE (%): −70 °C for 30 days
Description: The stability of the compounds obtained from each enriched matrices at the QC concentrations was evaluated under different conditions that covered the processing, handling, and storage phases that could be developed throughout the study.
Individual stock solutions of PE, SC, DF, HR, PU, and rutin (IS) were prepared separately in methanol (1 mg/mL) and stored at −4 °C until use. From the stocks, a working solution in methanol was prepared at a concentration of 200 µg/mL of each coumarin. Blank plasma or organs supernatant samples (80 µL) were spiked with 20 µL of serial dilutions of working solution to obtain calibration curves ranging between 0.156, 0.312, 0.625, 1.25, 2.5, 5, 10, 20, and 40 µg/mL of each coumarin. Quality control (QC) samples were prepared at three levels of 0.3 (low), 3 (medium), and 30 (high) µg/mL for each coumarin.
The stability of the analytes in plasma, brain, kidneys, and spleen was evaluated by the analyzed concentrations of QC subjected to three different conditions. Short-term stability was determined by analysis of samples processed in the autosampler vials at 24 h at room temperature. Long-term stability was tested on samples stored at −70 °C for 30 days. Freeze-thaw stability was determined after three cycles (−4 °C to 25 °C) on three consecutive days.

[4] = LPS-damaged ICR mice (LPS 2 mg/kg i.p.)

## COc1cc2ccc(=O)oc2cc1OCC=C(C)C [PE, 7-O-prenylscopoletin]
[1]
  time at which the highest concentration in the brain tissue is reached: 15 min
[2]; [4]
  Cmax: 1770 ± 310 ng/mL
[2]; LPS-damaged ICR mice
  AUC(0-inf): 6370 ± 1200 ng·h/mL
  MRT: 6.96 ± 1.92 h
  Tmax: 0.85 ± 0.28 h
  half-life: 4.48 ± 1.31 h
  AUC(0-t): 3520 ± 100 ng·h/mL
  Cl/F: 17.38 ± 2.25 (mg/kg)/(μg/mL)/h
[2]; healthy ICR mice
  AUC(0-inf): 1700 ± 310 ng·h/mL
  MRT: 3.04 ± 0.45 h
  Tmax: 1.55 ± 0.34 h
  half-life: 1.86 ± 0.55 h
  Cmax: 930 ± 290 ng/mL
  AUC(0-t): 1560 ± 350 ng·h/mL
  Cl/F: 65.83 ± 10.18 (mg/kg)/(μg/mL)/h
[3]; brain, nominal 0.3 µg/mL
  Stability Autosampler RE (%): -2.37%
  Stability Freeze-Thaw RE (%): -1.15%
  Stability Long-Term RE (%): -0.63%
[3]; brain, nominal 3.0 µg/mL
  Stability Autosampler RE (%): -0.34%
  Stability Freeze-Thaw RE (%): -2.34%
  Stability Long-Term RE (%): -3.44%
[3]; brain, nominal 30.0 µg/mL
  Stability Autosampler RE (%): 4.05%
  Stability Freeze-Thaw RE (%): -1.25%
  Stability Long-Term RE (%): -3.82%
[3]; kidney, nominal 0.3 µg/mL
  Stability Autosampler RE (%): 7.06%
  Stability Freeze-Thaw RE (%): 2.26%
  Stability Long-Term RE (%): 3.02%
[3]; kidney, nominal 3.0 µg/mL
  Stability Autosampler RE (%): 3.99%
  Stability Freeze-Thaw RE (%): 0.91%
  Stability Long-Term RE (%): 2.69%
[3]; kidney, nominal 30.0 µg/mL
  Stability Autosampler RE (%): 1.61%
  Stability Freeze-Thaw RE (%): 1.12%
  Stability Long-Term RE (%): 7.34%
[3]; plasma, nominal 0.3 µg/mL
  Stability Autosampler RE (%): -4.00%
  Stability Freeze-Thaw RE (%): 2.80%
  Stability Long-Term RE (%): -6.86%
[3]; plasma, nominal 3.0 µg/mL
  Stability Autosampler RE (%): 11.12%
  Stability Freeze-Thaw RE (%): -2.01%
  Stability Long-Term RE (%): -4.44%
[3]; plasma, nominal 30.0 µg/mL
  Stability Autosampler RE (%): 8.22%
  Stability Freeze-Thaw RE (%): -5.55%
  Stability Long-Term RE (%): -5.20%
[3]; spleen, nominal 0.3 µg/mL
  Stability Autosampler RE (%): -5.98%
  Stability Freeze-Thaw RE (%): 2.50%
  Stability Long-Term RE (%): 1.51%
[3]; spleen, nominal 3.0 µg/mL
  Stability Autosampler RE (%): -10.42%
  Stability Freeze-Thaw RE (%): 4.42%
  Stability Long-Term RE (%): 3.67%
[3]; spleen, nominal 30.0 µg/mL
  Stability Autosampler RE (%): -1.02%
  Stability Freeze-Thaw RE (%): 2.38%
  Stability Long-Term RE (%): 2.78%

## CC(C)=CCOc1ccc2ccc(=O)oc2c1 [PU, 7-O-prenylumbelliferone]
[1]
  time at which the highest concentration in the brain tissue is reached: 15 min
[2]; [4]
  Cmax: 690 ± 70 ng/mL
[2]; LPS-damaged ICR mice
  AUC(0-inf): 2240 ± 260 ng·h/mL
  MRT: 2.68 ± 0.14 h
  Tmax: 1.05 ± 0.31 h
  half-life: 0.95 ± 0.1 h
  AUC(0-t): 2220 ± 260 ng·h/mL
  Cl/F: 46.95 ± 5.03 (mg/kg)/(μg/mL)/h
[2]; healthy ICR mice
  AUC(0-inf): 1520 ± 120 ng·h/mL
  MRT: 2.15 ± 0.11 h
  Tmax: 1.55 ± 0.23 h
  half-life: 0.92 ± 0.06 h
  Cmax: 560 ± 50 ng/mL
  AUC(0-t): 1490 ± 110 ng·h/mL
  Cl/F: 67.37 ± 5.33 (mg/kg)/(μg/mL)/h
[2]; LPS-treated mice, Figure 3e
  time of concentration peak in plasma after administration of the extract: up to 4 h
[3]; brain, nominal 0.3 µg/mL
  Stability Autosampler RE (%): 2.13%
  Stability Freeze-Thaw RE (%): -6.54%
  Stability Long-Term RE (%): 3.45%
[3]; brain, nominal 3.0 µg/mL
  Stability Autosampler RE (%): 1.80%
  Stability Freeze-Thaw RE (%): -4.49%
  Stability Long-Term RE (%): -5.42%
[3]; brain, nominal 30.0 µg/mL
  Stability Autosampler RE (%): 4.57%
  Stability Freeze-Thaw RE (%): -1.74%
  Stability Long-Term RE (%): -4.61%
[3]; kidney, nominal 0.3 µg/mL
  Stability Autosampler RE (%): 7.10%
  Stability Freeze-Thaw RE (%): 3.61%
  Stability Long-Term RE (%): 5.54%
[3]; kidney, nominal 3.0 µg/mL
  Stability Autosampler RE (%): 5.21%
  Stability Freeze-Thaw RE (%): 2.01%
  Stability Long-Term RE (%): 8.68%
[3]; kidney, nominal 30.0 µg/mL
  Stability Autosampler RE (%): 1.66%
  Stability Freeze-Thaw RE (%): -1.02%
  Stability Long-Term RE (%): 6.46%
[3]; plasma, nominal 0.3 µg/mL
  Stability Autosampler RE (%): -6.02%
  Stability Freeze-Thaw RE (%): -9.54%
  Stability Long-Term RE (%): -8.22%
[3]; plasma, nominal 3.0 µg/mL
  Stability Autosampler RE (%): -11.68%
  Stability Freeze-Thaw RE (%): -9.78%
  Stability Long-Term RE (%): -10.56%
[3]; plasma, nominal 30.0 µg/mL
  Stability Autosampler RE (%): -9.86%
  Stability Freeze-Thaw RE (%): -5.10%
  Stability Long-Term RE (%): -4.81%
[3]; spleen, nominal 0.3 µg/mL
  Stability Autosampler RE (%): -0.09%
  Stability Freeze-Thaw RE (%): -8.53%
  Stability Long-Term RE (%): -6.92%
[3]; spleen, nominal 3.0 µg/mL
  Stability Autosampler RE (%): -4.98%
  Stability Freeze-Thaw RE (%): 2.88%
  Stability Long-Term RE (%): 7.56%
[3]; spleen, nominal 30.0 µg/mL
  Stability Autosampler RE (%): -2.63%
  Stability Freeze-Thaw RE (%): 2.27%
  Stability Long-Term RE (%): 4.26%

Source: publication PMC9656319, “Pharmacokinetics and Tissue Distribution of Coumarins from Tagetes lucida in an LPS-Induced Neuroinflammation Model” (Plants, 2022)
